From ChEMBL document CHEMBL3638714, “Fused heterocyclic derivative and pharmaceutical use thereof” (2015) come the findings set out here.

Chain of Xanthine dehydrogenase/oxidase (P80457 whole entry): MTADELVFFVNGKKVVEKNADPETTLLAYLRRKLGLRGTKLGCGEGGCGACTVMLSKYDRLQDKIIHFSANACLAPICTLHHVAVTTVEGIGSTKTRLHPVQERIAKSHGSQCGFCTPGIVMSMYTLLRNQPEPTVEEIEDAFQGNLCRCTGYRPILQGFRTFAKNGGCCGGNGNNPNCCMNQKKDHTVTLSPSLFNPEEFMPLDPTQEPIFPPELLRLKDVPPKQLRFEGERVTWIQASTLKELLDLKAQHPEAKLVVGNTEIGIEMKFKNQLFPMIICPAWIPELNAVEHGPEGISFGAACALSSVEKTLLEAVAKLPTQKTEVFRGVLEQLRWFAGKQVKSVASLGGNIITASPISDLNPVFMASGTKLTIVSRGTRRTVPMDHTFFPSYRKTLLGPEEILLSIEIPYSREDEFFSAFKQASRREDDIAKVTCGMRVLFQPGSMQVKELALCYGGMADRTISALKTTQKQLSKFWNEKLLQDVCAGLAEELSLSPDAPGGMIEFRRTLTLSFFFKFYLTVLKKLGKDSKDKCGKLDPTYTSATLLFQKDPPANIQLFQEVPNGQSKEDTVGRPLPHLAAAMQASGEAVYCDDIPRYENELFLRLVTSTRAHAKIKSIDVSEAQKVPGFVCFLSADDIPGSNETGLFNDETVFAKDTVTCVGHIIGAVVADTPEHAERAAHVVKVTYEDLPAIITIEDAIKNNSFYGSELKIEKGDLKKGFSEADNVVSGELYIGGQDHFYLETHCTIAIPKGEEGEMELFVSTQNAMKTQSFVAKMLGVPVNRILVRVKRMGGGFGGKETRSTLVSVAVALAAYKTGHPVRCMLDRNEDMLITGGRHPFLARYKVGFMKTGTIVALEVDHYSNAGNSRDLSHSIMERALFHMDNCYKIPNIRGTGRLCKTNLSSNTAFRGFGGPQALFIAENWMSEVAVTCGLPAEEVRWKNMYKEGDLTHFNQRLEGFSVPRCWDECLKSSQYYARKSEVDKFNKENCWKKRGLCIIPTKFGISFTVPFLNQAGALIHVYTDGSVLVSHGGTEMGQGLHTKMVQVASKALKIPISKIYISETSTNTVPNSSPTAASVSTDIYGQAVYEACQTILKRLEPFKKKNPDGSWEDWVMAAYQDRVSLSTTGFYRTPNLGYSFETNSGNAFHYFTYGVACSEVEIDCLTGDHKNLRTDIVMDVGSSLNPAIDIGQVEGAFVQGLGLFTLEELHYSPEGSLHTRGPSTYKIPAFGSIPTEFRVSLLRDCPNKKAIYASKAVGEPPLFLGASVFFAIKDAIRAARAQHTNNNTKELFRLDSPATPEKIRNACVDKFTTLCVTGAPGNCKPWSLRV

This experiment addresses Xanthine dehydrogenase/oxidase (Bos taurus, UniProt P80457). The experiment can be described thus: Inhibition Assay: Xanthine oxidase (from bovine milk, Sigma) was prepared with phosphate-buffered saline (PBS) at 0.02 units/mL, and then the solution was added to 96 well plates at 50 μL/well. In addition, test compounds diluted with PBS were added at 50 μL/well. Xanthine (manufactured by Wako pure chemical) at 200 μM prepared with PBS was added at 100 μL/well, and the reaction was conducted for 10 minutes at room temperature. Absorbance at 290 nm was measured by using a microplate reader SpectraMax Plus 384 (manufactured by Molecular device).
`[C-]#[N+]c1cn(-c2ccc(C(=O)O)c(O)c2)c2cscc12`: the 50% inhibitory concentration (IC50) (as a rule, the point on the concentration scale where inhibition reaches its midpoint) worked out at 10 nM.
For `[C-]#[N+]c1cn(-c2ccc(C(=O)O)c(O)c2)c2sc(Br)cc12`, the concentration for half-maximal inhibition (IC50) amounted to 14 nM.
As to `[C-]#[N+]c1cn(-c2ccc(C(=O)O)c(O)c2)c2sccc12`, the IC50 came out at 13 nM.
